According to PMC12278462, “Site-selective arylations of nature-inspired flavonoids or steroidal phenols via C—H or O—H activation” (Journal of Enzyme Inhibition and Medicinal Chemistry, 2025):
Read-outs that look alike come from different tables or passages of the source.

What was measured:
17β-HSD1 = target: T1, 17β-HSD1 (Homo sapiens, UniProt P14061); assay: 17β-HSD1 enzymatic assay (E1 to E2, LC-MS/MS); format: biochemical; conditions: for inhibition at 10 µM / inhibition at 100 µM: read-out: 17β-HSD1 Inhibition (% ± SD)
T1 sequence (P14061 1-328): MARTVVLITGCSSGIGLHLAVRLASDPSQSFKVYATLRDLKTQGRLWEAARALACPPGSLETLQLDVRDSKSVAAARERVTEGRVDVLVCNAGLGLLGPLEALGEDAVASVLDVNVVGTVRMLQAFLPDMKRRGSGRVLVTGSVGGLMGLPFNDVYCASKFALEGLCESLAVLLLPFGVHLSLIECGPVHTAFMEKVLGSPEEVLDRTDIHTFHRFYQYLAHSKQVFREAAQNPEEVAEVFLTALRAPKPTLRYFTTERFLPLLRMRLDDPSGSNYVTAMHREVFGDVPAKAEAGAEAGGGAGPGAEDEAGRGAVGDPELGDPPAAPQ
Description: The bacterial homogenate of E. coli overexpressing HSD17B1 was previously prepared as described in references ^S2,S3, and stored in aliquots at -80 °C. Before conducting experiments, aliquots were quickly thawed and diluted twice with 100 mM sodium phosphate buffer (pH 6.5; #14457, #1411007, Kemika), then kept on ice. The enzymatic assay was performed as described in ^S3. Briefly, a 1 mL enzymatic reaction mixture was prepared in 2 mL microcentrifuge tubes with the following components: 10 µL of the test inhibitor dissolved in dimethyl sulfoxide (DMSO; #276855, Sigma Aldrich) or 10 µL of DMSO for control samples, 5 µL of 14 µM substrate estrone (E1; CAS 53-16-7; #E2300-000, Steraloids), 10 µL of 10 mM NADPH (#AE14, Carl Roth) prepared in 100 mM sodium phosphate buffer, and 965 µL of 100 mM sodium phosphate buffer (pH 6.5). The reaction mixture was mixed thoroughly before adding 10 µL of bacterial homogenate. Immediately after addition, the tubes were transferred to an Eppendorf thermoshaker (#5382000031, Eppendorf) and incubated at 37 °C for 10 minutes. To stop the reaction, 60 µL of 1.26 M ascorbic acid (#A92902, Sigma Aldrich) in methanol (#34966, Honeywell/Riedel-de Haen) /acetic acid (#1.00063, Merck) (99:1, v/v) was added. The samples were then immediately processed using solid-phase extraction (SPE). The assay was repeated in three independent experiments, with each experiment performed in technical duplicate.
The preparation of samples for liquid chromatography-tandem mass spectrometry (LC-MS/MS) involved SPE. Stock solutions of E1 and 17β-estradiol (E2; CAS: 50-28-2; #142406, Steraloids) were prepared gravimetrically and dissolved in methanol (#34966, Honeywell/Riedel-de Haen). A working calibrator solution containing both steroids was then prepared by mixing appropriate volumes of the stock solutions in methanol to achieve a final concentration of 1 µg/mL for each steroid. Eight-point calibration curves (excluding zero and blank) were prepared in 100 mM sodium phosphate buffer (pH 6.5). For each 1 mL reaction mixture or calibrator, 10 µL of 100 ng/mL internal standard solution containing [2,3,4-13C3]-17β-estradiol (#719552, Sigma Aldrich) was added. Samples were mixed thoroughly and incubated at room temperature for 15 minutes.
SPE was performed using Strata X 33 µm polymeric reversed-phase columns (30 mg/mL tubes; #8B-S100-TAK, Phenomenex). The procedure involved the following steps: column conditioning with 1 mL of methanol, column equilibration with 1 mL of H₂O (#1.15333, Supelco), sample loading (1 mL sample or calibrator), column washing with 1 mL of H₂O, column drying under high vacuum for 10 minutes, and finally elution with 1 mL of methanol directly into HPLC glass vials (#702713, Macherey-Nagel GmbH/Co). The eluted samples were stored at -20 °C until LC-MS/MS analysis.

MDA-MB-231 = assay: MTT antiproliferative assay, MDA-MB-231; format: cell-based, human; conditions: Homo sapiens; for inhibition at 10 µM: MDA-MB-231, 10 µM; for inhibition at 10 µM / inhibition at 30 µM: 72 h; for inhibition at 30 µM: MDA-MB-231, 30 µM
Description: (§1) We evaluated the cytotoxic activity of the newly synthesised arylated compounds 13–17 by the MTT assay[37] on a panel of human adherent cancer cell lines. The panel included breast (MCF-7 and MDA MB-231) and cervical (HeLa, SiHa and C33A) cancer cell lines differing in receptorial or HPV status. Tumour selectivity was determined on the NIH/3T3 mouse fibroblast cell line.
(§2) Briefly, the panels of breast and cervical cancerous cell lines, differing by their receptorial and HPV status were used, precisely MCF-7 (ER, PR and HER2 positive) and MDA-MB-231 (TNBC) breast carcinoma and HeLa (HPV18+), SiHa (HPV16+), C33A (HPV-) cervical carcinoma cells. Non-cancerous NIH/3T3 mouse fibroblast cell line was used for selectivity study. MCF-7, MDA-MB-231, Hela and NIH/3T3 cell lines were purchased from ECACC (European Collection of Cell Cultures, Salisbury, UK), while SiHa and C33A from ATCC (American Tissue Culture Collection, LGC Standards GmbH, Wesel, Germany). Cells were maintained in Eagle's Minimum Essential Medium (EMEM, Capricorn Scientific GmbH, Ebsdorfergrund, Germany) supplemented with 10% heat-inactivated fetal bovine serum (FBS), 1% non-essential amino acids (NEAA), and 1% antibiotic-antimycotic mixture (penicillin–streptomycin). The cells were maintained at 37 °C in a humidified atmosphere containing 5% CO2.
(§3) For measurements cells were seeded for 96-well plates at a density of 5 000/well, except for C33A, which was seeded in 10 000cells for each well. After overnight standing cells were treated with 10 and 30 µM solutions for screening and increasing concentrations (0.1-30.0 µM) of the test compounds were used for concentration-response curves. After incubation for 72 hours under cell culturing condition 5 mg/ml MTT (3-(4,5-[…])-2,5-diphenyl-2H-tetrazolium bromide) solution was added for another 4 h. The precipitated formazan crystals were solubilized in DMSO and the absorbance was measured at 545 nm with a microplate reader (BMG Labtech, Ortenberg, Germany). Wells with untreated cells were utilized as control, and inhibition % were calculated by GraphPad Prism v 9.0 software (GraphPad Software, San Diego, CA, USA). If the growth-inhibition exceeded 70% at 30 µM concentration during the screening concentration-response curves were fitted and IC50 values were calculated by GraphPad Prism v 9.0. The experiments were performed with five parallel wells for each experimental condition and repeated at least twice.

[1] = tested on: NIH/3T3 mouse fibroblast cell line; assay: MTT assay, tumour selectivity on non-cancerous fibroblasts; format: cell-based; conditions: Mus musculus; for inhibition at 10 µM: NIH3T3, 10 µM; for inhibition at 10 µM / inhibition at 30 µM: 72 h; for inhibition at 30 µM: NIH3T3, 30 µM
Description: as §1, §2, §3

MCF-7 = assay: MTT antiproliferative assay, MCF-7; format: cell-based, human; conditions: Homo sapiens; for inhibition at 10 µM: MCF7, 10 µM; for inhibition at 10 µM / inhibition at 30 µM: 72 h; for inhibition at 30 µM: MCF7, 30 µM; for IC50: MCF7, 72 h, read-out: calculated IC50 MCF-7
Description: as §1, §2, §3

C33A = assay: MTT antiproliferative assay, C33A; format: cell-based, human; conditions: Homo sapiens, C-33-A, 72 h
Description: as §1, §2, §3

SiHa = assay: MTT antiproliferative assay, SiHa; format: cell-based, human; conditions: Homo sapiens, SiHa, 72 h
Description: as §1, §2, §3

HeLa = assay: MTT antiproliferative assay, HeLa; format: cell-based, human; conditions: Homo sapiens, HeLa, 72 h; for IC50: read-out: calculated IC50 HeLa
Description: as §1, §2, §3

[2] = tested on: human adherent cancer cell lines (HeLa, SiHa, C33A, MCF-7 and MDA-MB-231); assay: MTT assay, whole panel of cell lines; format: cell-based; conditions: Homo sapiens; MTT, 72 h; range across cell lines; read-out: IC50 range over the investigated cell lines
Description: as §1, §2, §3

Compound | inhibition at 10 µM (17β-HSD1; 10 µM test concentration) | inhibition at 100 µM (17β-HSD1; 100 µM test concentration) | inhibition at 10 µM (MDA-MB-231) | inhibition at 30 µM (MDA-MB-231) | inhibition at 10 µM [1] | inhibition at 30 µM [1] | inhibition at 10 µM (MCF-7) | inhibition at 30 µM (MCF-7) | inhibition at 10 µM (C33A) | inhibition at 30 µM (C33A) | inhibition at 10 µM (SiHa) | inhibition at 30 µM (SiHa) | inhibition at 10 µM (HeLa) | inhibition at 30 µM (HeLa) | further results
C[C@@]12CC[C@@H]3c4cc(-c5ccccc5)c(O)cc4CC[C@H]3[C@@H]1CCC2=O [2-Ph] | 54 ± 7.8% | 59.4 ± 7.8% | – | – | – | – | – | – | – | – | – | – | – | – | –
C[C@@]12CC[C@@H]3c4ccc(O)c(-c5ccccc5)c4CC[C@H]3[C@@H]1CCC2=O [4-Ph, reference compound] | 41.4 ± 0.2% | 52.1 ± 17.4% | – | – | – | – | – | – | – | – | – | – | – | – | –
CN(C)C(=O)Oc1cc2c(c(-c3ccccc3)c1)[C@H]1CC[C@@]3(C)C(=O)CC[C@H]3[C@@H]1CC2 [13a, 3-(N,N-Dimethylcarbamoyloxy)-1-phenyl-13α-estra-1,3,5(10)-triene-17-one] | – | – | < 10% | 41% | 13.5% | 22.5% | 22.5% | 52.8% | < 10% | 27.2% | 13.7% | 41% | 30.9% | 59.9% | 17β-HSD1 Inhibition (% ± SD) (17β-HSD1; 10 µM test concentration): No inhibition; inhibition at 100 µM (17β-HSD1): 33.6 ± 14.9%
CN(C)C(=O)Oc1cc2c(c(-c3ccc(Br)cc3)c1)[C@H]1CC[C@@]3(C)C(=O)CC[C@H]3[C@@H]1CC2 [13b, 1-(4-bromophenyl)-3-(N,N-dimethylcarbamoyloxy)-13α-estra-1,3,5(10)-triene-17-one] | – | – | < 10% | 13.9% | < 10% | 46.3% | 37.5% | 68.7% | < 10% | 57.8% | 38.6% | 40% | 53.6% | 59.3% | inhibition at 10 µM (17β-HSD1): 14.5 ± 8.4%; inhibition at 100 µM (17β-HSD1): 42.2 ± 18.6%
CN(C)C(=O)Oc1cc2c(c(-c3ccc(C(C)(C)C)cc3)c1)[C@H]1CC[C@@]3(C)C(=O)CC[C@H]3[C@@H]1CC2 [13c, 3-(N,N-dimethylcarbamoyloxy)-1-(4-tert-butylphenyl)-13α-estra-1,3,5(10)-triene-17-one] | – | – | 43.8% | 92.9% | 47.3% | 97.7% | 58.4% | 102% | 41.1% | 93.6% | 54.8% | 101% | 53.8% | 98.6% | IC50 (MDA-MB-231; MDA-MB-231, 72 h, read-out: calculated IC50 MDA-MB-231): 9.09 µM; IC50 ([1]; NIH3T3, 72 h, read-out: calculated IC50 NIH/3T3): 8.75 µM; IC50 (MCF-7): 5.7 µM; IC50 (C33A; read-out: calculated IC50 C33A): 10.1 µM; IC50 [2]: 4.74 to 10.1 µM; IC50 (SiHa; read-out: calculated IC50 SiHa): 4.74 µM; IC50 (HeLa): 7.9 µM; 17β-HSD1 Inhibition (% ± SD) (17β-HSD1; 10 µM test concentration): No inhibition; 17β-HSD1 Inhibition (% ± SD) (17β-HSD1; 100 µM test concentration): No inhibition
C[C@@]12CC[C@@H]3c4c(cc(O)cc4-c4ccccc4)CC[C@H]3[C@@H]1CCC2=O [14a, 3-hydroxy-1-phenyl-13α-estra-1,3,5(10)-triene-17-one] | 36.1 ± 10.2% | 73.3 ± 7.5% | < 10% | < 10% | 13.5% | 22.5% | 13.1% | 15.4% | < 10% | 12.7% | < 10% | < 10% | 16.1% | 43% | –
C[C@@]12CC[C@@H]3c4c(cc(O)cc4-c4ccc(Br)cc4)CC[C@H]3[C@@H]1CCC2=O [14b, 1-(4-bromophenyl)-3-hydroxy-13α-estra-1,3,5(10)-triene-17-one] | 35.9 ± 8% | 76.6 ± 5.1% | < 10% | 46.8% | 16.1% | 41.7% | 35.1% | 81.5% | 28.7% | 57% | < 10% | 59.7% | 26.5% | 71.6% | IC50 (MCF-7): 13.5 µM; IC50 (HeLa): 17.5 µM
C[C@]12CC[C@H]3C(=CCc4cc(O)ccc43)[C@@H]1CCC2=O [Equilin, reference compound] | 85.9 ± 1.6% | – | – | – | – | – | – | – | – | – | – | – | – | – | –
